Test results published in ChEMBL document CHEMBL1142480, “Use of the X-ray structure of the beta2-adrenergic receptor for drug discovery. Part 2: Identification of active compounds” (Bioorg Med Chem Lett, 2008).

Each molecule was assayed against Beta-2 adrenergic receptor (Homo sapiens, UniProt P07550).
Beta-2 adrenergic receptor, sequence (P07550 whole entry): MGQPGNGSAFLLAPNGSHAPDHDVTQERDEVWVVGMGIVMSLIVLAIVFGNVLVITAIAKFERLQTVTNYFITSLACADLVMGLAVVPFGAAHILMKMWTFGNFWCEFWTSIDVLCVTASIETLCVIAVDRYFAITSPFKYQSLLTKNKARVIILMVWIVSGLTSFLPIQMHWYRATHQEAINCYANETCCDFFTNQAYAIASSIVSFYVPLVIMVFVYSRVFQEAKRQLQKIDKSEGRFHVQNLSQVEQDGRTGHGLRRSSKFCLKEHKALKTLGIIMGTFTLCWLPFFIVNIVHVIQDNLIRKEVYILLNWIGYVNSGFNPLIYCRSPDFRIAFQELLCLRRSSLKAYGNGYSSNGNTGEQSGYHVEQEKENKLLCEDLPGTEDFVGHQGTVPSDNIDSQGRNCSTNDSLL
Description: Displacement of [3H]DHA from human beta2 adrenoceptor by liquid scintillation counter
`N#Cc1cc2c(OCC(O)CN3CCN(C(c4ccccc4)c4ccccc4)CC3)cccc2[nH]1` (centres undefined) gave a Ki of 57.3 nM. With `CC(C)(C)NCC(O)COc1cccc2[nH]cc(CC(N)=O)c12` (centres undefined) the Ki was 23.5 nM. With `Cc1c[nH]c2cccc(OCC(O)CN3CCN(C(c4ccccc4)c4ccccc4)CC3)c12` (centres undefined) the Ki was 0.311 nM. Molecule `CC(C)(C)NCC(O)COc1cccc2oc3ccccc3c12` (centres undefined) has a Ki of 0.145 nM.
